Measured values as given in patent publication US20050112573A1, “Method of detecting toxic substance” (priority 2001, published 2005).

Tested on: yeast genes (level of expressed mRNA)
Assay: DNA chip analysis of expressed mRNA of yeast genes after 2 h culture with a toxic chemical substance
Assay type: cell-based, Saccharomyces cerevisiae S288C
Settings: for The level of expressed mRNA in the presence of chemical substance/ (ratio to absence of chemical substance): stress protein genes, DNA chip
Procedure: Yeast (Saccharomyces cerevtisiae S288C (α SUC2mal mel gap2 CUP1)) were cultured at 25° C. on YPD medium (yeast extract 1%, polypepton 2%, glucose 2%). One of toxic chemical substances was added to the cell at logarithmic growth phase, and the cell was further cultured for two hours. Cell was cultured without any chemical substance in the same condition, and was used as control. Concentrations of the chemical substances were defined to inhibit the growth of the yeast but not lead to death.
After the completion of cultivation, the culture was centrifuged to collect the cells. To the cells, sodium acetate buffer (50 mM sodium acetate, 10 mM EDTA, 1% SDS) was added, and the mixture was shaken at 65° C. for five minutes, followed by returning to room temperature, and obtaining the supernatant, which procedure was repeated two times. To the supernatant, ½ amount of a solution of phenol/chloroform was added, and the mixture was centrifuged to give a supernatant, which was added with an equal amount of chloroform, and the mixture was centrifuged to give a supernatant. To the supernatant, an equal amount of isopropanol containing 0.3 M sodium acetate was added, and the mixture was allowed to stand at room temperature for 30 minutes, after which the mixture was centrifuged to give a sediment of the whole RNAs. Seventy % ethanol was added to the sediment, and the mixture was again centrifuged to give a sediment, which was then dried and dissolved in water. mRNA was isolated from the whole RNAs as followings. In view of the fact that a poly A chain is attached to the 3′ terminus of mRNA, a polynucleotide having a poly T structure which was immobilized on the surface of latex beads was used to trap the mRNA, and then the mRNA was washed and eluted with spine column (Oligotex-dT30<Super>mRNA Purification Kit, Takara). Reverse transcription of the mRNA was conducted with a reverse transcriptase (Super Script II Reverse Transcriptase; catalogue No. 18064-014, GibcoBRL) using fluorescence-labeled nucleotides to give cDNAs that were introduced with Cy3-dUTP or Cy5-dUTP during the reverse transcription.
The labeled cDNAs were dissolved in TE buffer (10 mM Tris-HCl/1 mM EDTA, pH8.0), and the solution was dropped on the DNA chip containing the whole genes of yeast (DNA Chip Research Inc. Japan) so that the cDNAs were hybridized on the DNA chip at 65° C. for over 12 hours. The fluoresces intensity of the DNA chip was read with a scanner, and the ratio relative to the fluorescence intensity resulting from the absence of chemical substance was estimated as the following, which is shown in Tables 1 to 9: [formula]
In the Tables, “Intensity” indicated in the rightmost column is a value of the level of expressed mRNA of each gene in control cells as divided by the average level of the expressions of the whole genes.

SMILES: CCCCC[C@H](O)CC(=O)CCc1ccc(O)c(OC)c1 [(13), gingerol]
- The level of expressed mRNA in the presence of chemical substance/absence: YOR267C (gene YOR267C): 1.4
- The level of expressed mRNA in the presence of chemical substance/absence: YOR325W (gene YOR325W): 0.6
- level of expressed mRNA in the presence of chemical substance/in its absence (gene YOR336W): 2.1
- level of expressed mRNA in the presence of chemical substance/in its absence (gene YOR344C): 1.8
- level of expressed mRNA in the presence of chemical substance/in its absence (gene YOR347C): 1.8
- The level of expressed mRNA in the presence of chemical substance/absence: YPL005W (gene YPL005W): 1.2
- level of expressed mRNA in the presence of chemical substance/in its absence (gene YPL017C): 1.9
- The level of expressed mRNA in the presence of chemical substance / the level in the absence of chemical substance, yeast gene YPL107W (gene YPL107W, DNA chip fluorescence ratio to control without chemical, 2 hours culture with chemical, growth-inhibiting non-lethal concentration): 0.8
- The level of expressed mRNA in the presence of chemical substance / the level in the absence of chemical substance, yeast gene YPL138C (gene YPL138C, DNA chip fluorescence ratio to control without chemical, 2 hours culture with chemical, growth-inhibiting non-lethal concentration): 0.6
- The level of expressed mRNA in the presence of chemical substance/absence: YPL150W (gene YPL150W): 2.1
- The level of expressed mRNA in the presence of chemical substance/absence: YPL151C (gene YPL151C): 1.4
- The level of expressed mRNA in the presence of chemical substance/absence: YPL152W (gene YPL152W): 1.4
- The level of expressed mRNA in the presence of chemical substance/absence: YPL168W (gene YPL168W): 1.0
- The level of expressed mRNA in the presence of chemical substance/absence: YPL180W (gene YPL180W): 1.5
- The level of expressed mRNA in the presence of chemical substance/absence: YPL188W (gene YPL188W): 0.9
- The level of expressed mRNA in the presence of chemical substance/absence: YPL221W (gene YPL221W): 1.0
- The level of expressed mRNA in the presence of chemical substance/absence: YPL225W (gene YPL225W): 0.8
- The level of expressed mRNA in the presence of chemical substance/absence: YPL249C (gene YPL249C): 1.8
- The level of expressed mRNA in the presence of chemical substance/absence: YPL260W (gene YPL260W): 1.4
- level of expressed mRNA in the presence of chemical substance/in its absence (gene YPL265W): 1.1
- level of expressed mRNA in the presence of chemical substance/in its absence (gene YPR006C): 1.8
- level of expressed mRNA in the presence of chemical substance/in its absence (gene YPR026W): 2.3
- The level of expressed mRNA in the presence of chemical substance/absence: YPR049C (gene YPR049C): 1.6
- The level of expressed mRNA in the presence of chemical substance/absence: YPR061C (gene YPR061C): 1.1
- The level of expressed mRNA in the presence of chemical substance/absence: YPR093C (gene YPR093C): 1.4
- The level of expressed mRNA in the presence of chemical substance/absence: YPR146C (gene YPR146C): 1.3
- The level of expressed mRNA in the presence of chemical substance/absence: YPR148C (gene YPR148C): 1.2
- The level of expressed mRNA in the presence of chemical substance/absence: YPR150W (gene YPR150W): 1.4
- The level of expressed mRNA in the presence of chemical substance/absence: YPR158W (gene YPR158W): 1.6
- The level of expressed mRNA in the presence of chemical substance/absence: YPR169W (gene YPR169W): 1.0
- The level of expressed mRNA in the presence of chemical substance/absence: YPR172W (gene YPR172W): 1.3
- The level of expressed mRNA in the presence of chemical substance/absence: YPR174C (gene YPR174C): 1.4
- The level of expressed mRNA in the presence of chemical substance/The level of expressed mRNA in the absence of chemical substance (yeast gene YAR010C): 1.4
- The level of expressed mRNA in the presence of chemical substance/The level of expressed mRNA in the absence of chemical substance (yeast gene YBL005W-A): 2.9
- The level of expressed mRNA in the presence of chemical substance/ (ratio to absence), gene YBL038W (yeast gene YBL038W, mitochondria-located protein genes, 2 h culture with chemical): 1.0
- The level of expressed mRNA in the presence of chemical substance/The level of expressed mRNA in the absence of chemical substance (yeast gene YBL041W): 2.6
- The level of expressed mRNA in the presence of chemical substance/The level of expressed mRNA in the absence of chemical substance (yeast gene YBL043W): 1.8
- The level of expressed mRNA in the presence of chemical substance/The level of expressed mRNA in the absence of chemical substance (yeast gene YBL078C): 5.0
- The level of expressed mRNA in the presence of chemical substance/ (ratio to absence of chemical substance) (yeast gene YBL093C): 2.1
- The level of expressed mRNA in the presence of chemical substance/ (in its absence), gene YBR036C (yeast gene YBR036C, ratio of DNA chip fluorescence intensity to that without chemical substance): 1.9
- The level of expressed mRNA in the presence of chemical substance/ (ratio to absence of chemical substance) (yeast gene YBR044C): 1.2
- The level of expressed mRNA in the presence of chemical substance/ (ratio to absence), gene YBR122C (yeast gene YBR122C, mitochondria-located protein genes, 2 h culture with chemical): 0.8
- The level of expressed mRNA in the presence of chemical substance/The level of expressed mRNA in the absence of chemical substance (yeast gene YBR214W): 2.1
- The level of expressed mRNA in the presence of chemical substance/ (ratio to absence), gene YBR251W (yeast gene YBR251W, mitochondria-located protein genes, 2 h culture with chemical): 1.0
- The level of expressed mRNA in the presence of chemical substance/ (in its absence), gene YBR298C (yeast gene YBR298C, ratio of DNA chip fluorescence intensity to that without chemical substance): 0.8
- The level of expressed mRNA in the presence of chemical substance/The level of expressed mRNA in the absence of chemical substance (yeast gene YCL020W): 3.0
- The level of expressed mRNA in the presence of chemical substance/The level of expressed mRNA in the absence of chemical substance (yeast gene YCL027W): 1.1
- The level of expressed mRNA in the presence of chemical substance/The level of expressed mRNA in the absence of chemical substance (yeast gene YCR004C): 1.3
- The level of expressed mRNA in the presence of chemical substance/ (ratio to absence), gene YCR046C (yeast gene YCR046C, mitochondria-located protein genes, 2 h culture with chemical): 1.5
- The level of expressed mRNA in the presence of chemical substance/The level of expressed mRNA in the absence of chemical substance (yeast gene YCR071C): 1.3
- The level of expressed mRNA in the presence of chemical substance/ (ratio to absence), gene YCR083W (yeast gene YCR083W, mitochondria-located protein genes, 2 h culture with chemical): 1.8
- The level of expressed mRNA in the presence of chemical substance/ (ratio to absence of chemical substance) (yeast gene YCR083W): 1.8
- The level of expressed mRNA in the presence of chemical substance/The level of expressed mRNA in the absence of chemical substance (yeast gene YCR088W): 1.9
- The level of expressed mRNA in the presence of chemical substance/The level of expressed mRNA in the absence of chemical substance (yeast gene YDL008W): 2.0
- The level of expressed mRNA in the presence of chemical substance/ in its absence, gene YDL067C (yeast gene YDL067C, energy system protein genes, 2 h culture with the chemical, ratio to control without chemical): 0.6
- The level of expressed mRNA in the presence of chemical substance/ (ratio to absence), gene YDL067C (yeast gene YDL067C, mitochondria-located protein genes, 2 h culture with chemical): 0.6
- The level of expressed mRNA in the presence of chemical substance/ in its absence, gene YDL078C (yeast gene YDL078C, energy system protein genes, 2 h culture with the chemical, ratio to control without chemical): 1.0
